Source: US20100080860A1, “Application of short-chain monocarboxylic acids for crop protection” (UNIVERSITAT JAUME I, priority 2005, published 2010)
In brackets after ≈: the same amount, converted by molar mass. Several values for one entry are separate records, joined by “and”; a condition that tells them apart may be missing. Identical values can stand only once.

Key:
B. cinerea [1] = experiment: Spray treatment of tomato plants with hexanoic acid potassium salt, B. cinerea inoculation; type: in vivo, Botrytis cinerea; conditions: for % inhibition of infection versus control: 72 h
Experimental: Hexanoic acid potassium salt was provided by preparing a mole-to-mole solution of hexanoic acid with K2CO3. A concentrated solution was prepared, adjusted to pH 6, and then dilutions were performed in order to provide in-use concentrations, namely, 20 mM, 10 mM, 6 mM and 3 mM.
The plants were treated with the formed salt by spray application and then left to dry for 30 minutes. Afterwards, treated leaves, which were previously incubated for 2 h in Gamborg medium supplemented with sucrose and phosphate, were inoculated with 5 μl of a suspension containing 10^6 spores/ml of B. cinerea, and then stored in a high-humidity chamber at 25° C. for 72 h.
The infection diameter was measured and, finally, the germination percentage was determined.

B. cinerea spores = experiment: Direct antimicrobial effect in vitro: spore germination, mycelium growth, MIC/MFC in PDB; type: cell-based, Botrytis cinerea
Experimental: Test mixture contained 4×10^6 conidia/ml PDB (potatodextrose broth, Difco, Detroit, Mich., USA). Treatments (hexanoic acid and heptanoic acid) were added to PDB from stock solutions in order to obtain the different concentrations to be used (0.06 to 30 mM). Medium pH was adjusted to 3.6-5.5 using HCl or NaOH. One ml of each mixture was dispensed into sterile 24-well microplates and then incubated at 20° C. under gentle stirring. Percentage of germinated spores was calculated after 20 h incubation by staining with 0.1% lacto-fucshin (1:1) followed by microscopic observation of 100 spores. Spores were considered to be germinated when the length of germ tube was equal to or greater than spore. For assessment of efficacy in long-term treatments, test culture was left for a 7-day incubation period under previously described conditions, and mycelium development was assessed as follows: 3 ml of each culture were vacuum-filtered through pre-weighed nitrocellulose filters (Millipore, ref. HAWP02500). The filters were dried at 85° C. until weight was constant at room temperature.
For measurement of treatment effects on mycelium growth, 9×10^6 spores were inoculated to a final volume of 150 ml PDB. After 20 h incubation, spores were examined for germination by microscopic analysis, then treatments were added, and pH was adjusted to 5.5. Cultures were incubated at 20° C. under gentle stirring. After 96 h, mycelium growth was measured by determining dry weight, as described herein. […] After MIC determination, minimum fungicidal concentration (MFC) was measured as follows. After 20 h incubation, an aliquot of the cultures, in which no growth had been detected, was taken, then washed three times and added to a fresh medium without added treatment. After 20 h incubation, under previously described conditions, the germination percentage was estimated. MFC is the minimum concentration of test compound at which microorganisms are not recovered.

B. cinerea [2] = experiment: Hexanoic acid root application in hydroponic cultivation, protection of tomato plants against B. cinerea; type: in vivo, Botrytis cinerea; conditions: control: water
Experimental: (§1) Experiments were performed with 4-week-old tomato plants (Cv. Ailsa Craig) in hydroponic cultivation. Before initiation of treatment, the plants were maintained in hydroponic cultivation for 1 week for habituation under such cultivation conditions. Treatment comprised the addition of hexanoic acid to a nutrient solution (Hoagland solution) at the following concentrations: 0.06 mM, 0.6 mM, 3 mM, 6 mM, 16 mM and 20 mM, pH was adjusted to 6. After 48 hours of treatment, the leaflets of the third and fourth true leaves were inoculated with 5 μl of a suspension containing 10^6 conidia B. cinerea/ml. Spores had previously been incubated in Gamborg medium (Duchefa Biochemie, The Netherlands) supplemented with sucrose and phosphate, over a period of 2 h. Spores were inoculated in this medium. For each treatment, 10 plants were used, which were kept under humidity- and temperature-controlled conditions (80% RH, 21° C.). Sampling was performed at 48, 72, 96 and 120 hours after inoculation.

B. cinerea [3] = experiment: Hexanoic acid root application in soil cultivation, protection of tomato plants against B. cinerea; type: in vivo, Botrytis cinerea; conditions: control: water
Experimental: as §1
Plants were cultivated in soil and the solutions of hexanoic acid, at different concentrations, were prepared and applied in the same manner as that described above. Control was water.

B. cinerea [4] = experiment: Hexanoic acid root application in soil cultivation, protection of Arabidopsis plants against B. cinerea; type: in vivo, Botrytis cinerea
Experimental: (§2) Experiments were performed with 5-week-old Arabidopsis plants cultivated in soil. Two weeks after germination, the plants were transplanted into single pots and kept at a temperature of 20° C. day/18° C. night and 8.5 h light cycle for 24 h and 60% relative humidity (RH).
(§3) The plants were treated with different concentrations of hexanoic acid (0.6 mM, 0.8 mM and 1 mM) and inoculated with 6 μl of 2.5×10^4 spores/mL Botrytis cinerea and 2×10^6 spores/mL Alternaria brassicicola.
(§4) Sampling was performed at 48, 72, 96 and 120 hours after inoculation.

A. Brassicicola = experiment: Hexanoic acid root application in soil cultivation, protection of Arabidopsis plants against A. Brassicicola; type: in vivo, Alternaria brassicicola; conditions: 0.8 mM
Experimental: as §2, §3, §4

B. cinerea [5] = experiment: Spray application of hexanoic acid on tomato plants against B. cinerea; type: in vivo, Botrytis cinerea; conditions: for % inhibition of invention versus control: spray application, tomato plants
Botrytis cinerea = experiment: Post-harvest treatment: combined inoculation of hexanoic acid and Botrytis cinerea spores into tomato fruits; type: in vivo; conditions: combined inoculation with spores, preliminary studies
Experimental: Preliminary studies were also performed on the application of hexanoic acid for post-harvest treatment.

Peronospora parasitica = experiment: Induced resistance in Arabidopsis thaliana against Peronospora parasitica; type: in vivo
Pseudomonas syringe = experiment: Induced resistance in Arabidopsis thaliana against Pseudomonas syringe; type: in vivo

CCCCCC(=O)[O-].[K+] [Hexanoic acid potassium salt]
% inhibition of infection versus control (B. cinerea [1]; 6 mM): 52.1% | % inhibition of infection versus control (B. cinerea [1]; 10 mM): 61.3% | % inhibition of infection versus control (B. cinerea [1]; 20 mM, listed as potassium salt, potassium salt): 80% | % inhibition of infection versus control (B. cinerea [1]; 20 mM, potassium salt): 80.3% | % inhibition of infection versus control (B. cinerea [1]; 3M): 49.8% | inhibition at 3000 µM (B. cinerea [1]; Botrytis cinerea, 3 mM, read-out: inhibition of fungal infection): ~50%

CCCCCCC(=O)O [heptanoic acid]
concentration from which spore germination is significantly decreased / inhibited (B. cinerea spores; B. cinerea spores in vitro): ≥ 6 mM | effect on spore germination compared with hexanoic acid (B. cinerea spores; B. cinerea spores in vitro): the same at the same concentration range | germ tube development (B. cinerea spores; B. cinerea spores in vitro): entirely prevents germ tube development

CCCCCC(=O)O [hexanoic acid]
% inhibition of infection versus control (B. cinerea [2]; 0.06 mM): 35.57% | % inhibition of infection versus control (B. cinerea [2]; 0.6 mM): 48.90% | % inhibition of infection versus control (B. cinerea [2]; 3 mM): 64.06% | % inhibition of infection versus control (B. cinerea [2]; 6 mM): 61.98% | % inhibition of infection versus control (B. cinerea [2]; 16 mM): 63.52% | % inhibition of infection versus control (B. cinerea [2]; 20 mM): 53.60% | % inhibition of infection versus control (B. cinerea [3]; 0.06 mM): 60.15% | % inhibition of infection versus control (B. cinerea [3]; 0.6 mM): 49.77% | % inhibition of infection versus control (B. cinerea [4]; 0.6 mM): 10% | % inhibition of infection versus control (B. cinerea [4]; 0.8 mM): 28% | % inhibition of infection versus control (B. cinerea [4]; 1 mM): 38% | % inhibition of infection versus control (A. Brassicicola; time after inoculation 48): 54.5% | % inhibition of infection versus control (A. Brassicicola; time after inoculation 72): 40.5% | % inhibition of infection versus control (A. Brassicicola; time after inoculation 96): 6.3% | % inhibition of invention versus control (B. cinerea [5]; 3 mM): 7.63% | % inhibition of invention versus control (B. cinerea [5]; 16 mM): 67% and 66.85% | % inhibition of invention versus control (B. cinerea [5]; 20 mM): 81% and 81.47% | curative effect in plants already inoculated (B. cinerea [5]; plants already inoculated with B. cinerea, preliminary results): restrains the progress of necrosis | concentration from which spore germination is significantly decreased / inhibited (B. cinerea spores; B. cinerea spores in vitro): ≥ 3 mM | concentration that entirely inhibits germination (B. cinerea spores; B. cinerea spores in vitro): 16 mM | MFC (B. cinerea spores; Botrytis cinerea, 20 h, read-out: minimum fungicidal concentration (MFC)): 16 mM (≈ 1860 µg/mL) | reversibility of the inhibitor effect after spore washing (B. cinerea spores; spores treated at MFC, treatment removed by washing): irreversible fungicidal effect | mycelium development in already germinated spores (B. cinerea spores; treatment added after germination): inhibits mycelium development | infection rate of treated fruits (Botrytis cinerea): significant decrease in the infection rate | induced resistance (Peronospora parasitica): induced resistance | induced resistance (Pseudomonas syringe): induced resistance
